Source: patent publication US11666600B2, “Methods for culturing and/or differentiating hematopoietic stem cells into progenitors and uses thereof” (HEMA-QUEBEC, priority 2015, dated 2023)

Test system: Human CB CD34+-enriched cells
Assay: Culture of CB CD34+-enriched hematopoietic stem cells in conditions favoring self-renewal
Type: cell-based
Conditions: for Percentage of phenotype CD34+ / Percentage of phenotype CD34+/CD38− / Percentage of phenotype CD34+/CD38−/CD45RA− / Percentage of phenotype CD34+/CD45RA− / Percentage of phenotype CD38− / Percentage of phenotype CD45RA−: 14 days
Procedure: Human cord blood (CB) was collected after obtaining written informed consent from donors, following our institutional Research Ethics Committee guidelines. Mononuclear cells (MNCs) were first separated over a Ficoll-Hypaque™ density gradient (GE Healthcare), then cryopreserved at −180° C. in Cryostor CS10™ medium ([…] Technologies). Thawed MNCs from six to eight CB were pooled before CD34 isolation. CB CD34+ cells were enriched by positive selection using the EasySep™ CD34 enrichment kit, according to the manufacturer's instructions ([…] Technologies).
Cultures were maintained in a humidified atmosphere with 5% CO2 at 37° C. or 39° C., as indicated in the Examples. Cells were diluted at 500 000 cells/mL with fresh medium every 3 to 4 days.
Cellular counts and viability were determined by adding Solution 18 (Acridine Orange and DAPI solution, ChemomMetec) and using NucleoCounter™ NC-250 for detection (ChemomMetec).
For cells expanded in conditions favoring self-renewal, surface markers were detected using the following antibodies: CD34-PE, CD45RA-FITC, and CD38-BV421. All antibodies were purchased from BD Biosciences, except for CD34-PE which was purchased from Immunotech. Labeling of aldehyde dehydrogenase (ALDH)-positive cells was performed using the ALDEFLUOR™ Kit ([…] Technologies), according to the manufacturer's instructions. 7AAD was used as a viability dye. All samples were analyzed on a FACS-Cy Flow ML system (Sysmex), and raw data were analyzed with FCS Express 5 Flow Research Edition software from at least 15 000 viable cell events acquired for each sample.
Cellular counts and viability were determined as described in Example 6.5.

[1] = 37° C. + PIC 35 nM, ACF + CC110
[2] = 37° C. + PIC 35 nM, ACF + CC110 (Table 5)
[3] = 37° C. + PIC 35 nM, ACF + HM (Table 5)
[4] = 37° C. + PIC 35 nM, SFEM + CC110
[5] = 37° C. + PIC 35 nM, SFEM II + CC110
[6] = 37° C. + PIC 35 nM, SFEM II + HM
[7] = 39° C. + PIC 35 nM, ACF + CC110
[8] = 39° C. + PIC 35 nM, ACF + CC110 (Table 5)
[9] = 39° C. + PIC 35 nM, ACF + HM (Table 5)
[10] = 39° C. + PIC 35 nM, SFEM + CC110
[11] = 39° C. + PIC 35 nM, SFEM II + CC110
[12] = 39° C. + PIC 35 nM, SFEM II + HM

Compound: Cl.Cn1nnc(-c2ccc3c(c2)[nH]c2nc(Cc4ccccc4)nc(N[C@H]4CC[C@H](N)CC4)c23)n1 [PIC, (1r,4r)-N1-(2-benzyl-7-(2-methyl-2H-tetrazol-5-yl)-9H-pyrimido[4,5-b]indol-4-yl)cyclohexane-1,4-diamine hydrochloride]
- combined use of mild hyperthermia and PIC on expansion of CD34+/ALDH^Bright cells (39° C. + PIC 35 nM, 21 days, ACF + HM, FIG. 29): synergistic expansion
- Percentage of phenotype CD34+ [1]: 48.9%
- Percentage of phenotype CD34+/CD38− [1]: 30.3%
- Percentage of phenotype CD34+/CD38−/CD45RA− [1]: 10%
- Percentage of phenotype CD34+/CD45RA− [1]: 16.36%
- Percentage of phenotype CD38− [1]: 14.8%
- Percentage of phenotype CD45RA− [1]: 59.2%
- Percentage of phenotype CD34+ [2]: 50.98%
- Percentage of phenotype CD34+/CD45RA− [2]: 11.83%
- Percentage of phenotype CD45RA− [2]: 76.09%
- Percentage of phenotype CD34+ (37° C. + PIC 35 nM, ACF + HM): 51.5%
- Percentage of phenotype CD34+/CD38− (37° C. + PIC 35 nM, ACF + HM): 32.4%
- Percentage of phenotype CD34+/CD38−/CD45RA− (37° C. + PIC 35 nM, ACF + HM): 14.7%
- Percentage of phenotype CD34+/CD45RA− (37° C. + PIC 35 nM, ACF + HM): 22.4%
- Percentage of phenotype CD38− (37° C. + PIC 35 nM, ACF + HM): 12.05%
- Percentage of phenotype CD45RA− (37° C. + PIC 35 nM, ACF + HM): 53.4%
- Percentage of phenotype CD34+ [3]: 44.62%
- Percentage of phenotype CD34+/CD45RA− [3]: 7.67%
- Percentage of phenotype CD45RA− [3]: 77.44%
- Percentage of phenotype CD34+ [4]: 42.68%
- Percentage of phenotype CD34+/CD45RA− [4]: 6.96%
- Percentage of phenotype CD45RA− [4]: 78.72%
- Percentage of phenotype CD34+ (37° C. + PIC 35 nM, SFEM + HM): 37.4%
- Percentage of phenotype CD34+/CD45RA− (37° C. + PIC 35 nM, SFEM + HM): 6.66%
- Percentage of phenotype CD45RA− (37° C. + PIC 35 nM, SFEM + HM): 75.74%
- Percentage of phenotype CD34+ [5]: 33.38%
- Percentage of phenotype CD34+/CD45RA− [5]: 6.09%
- Percentage of phenotype CD45RA− [5]: 77.73%
- Percentage of phenotype CD34+ [6]: 30.82%
- Percentage of phenotype CD34+/CD45RA− [6]: 6.11%
- Percentage of phenotype CD45RA− [6]: 77.27%
- Percentage of phenotype CD34+ [7]: 43.7%
- Percentage of phenotype CD34+/CD38− [7]: 24.2%
- Percentage of phenotype CD34+/CD38−/CD45RA− [7]: 14.1%
- Percentage of phenotype CD34+/CD45RA− [7]: 23.05%
- Percentage of phenotype CD38− [7]: 14.45%
- Percentage of phenotype CD45RA− [7]: 40.85%
- Percentage of phenotype CD34+ [8]: 43.73%
- Percentage of phenotype CD34+/CD45RA− [8]: 18.73%
- Percentage of phenotype CD45RA− [8]: 59.72%
- Percentage of phenotype CD34+ (39° C. + PIC 35 nM, ACF + HM): 40.95%
- Percentage of phenotype CD34+/CD38− (39° C. + PIC 35 nM, ACF + HM): 22.9%
- Percentage of phenotype CD34+/CD38−/CD45RA− (39° C. + PIC 35 nM, ACF + HM): 15.7%
- Percentage of phenotype CD34+/CD45RA− (39° C. + PIC 35 nM, ACF + HM): 24.8%
- Percentage of phenotype CD38− (39° C. + PIC 35 nM, ACF + HM): 12%
- Percentage of phenotype CD45RA− (39° C. + PIC 35 nM, ACF + HM): 35.2%
- Percentage of phenotype CD34+ [9]: 44.82%
- Percentage of phenotype CD34+/CD45RA− [9]: 17.68%
- Percentage of phenotype CD45RA− [9]: 59.67%
- Percentage of phenotype CD34+ [10]: 45.36%
- Percentage of phenotype CD34+/CD45RA− [10]: 12.23%
- Percentage of phenotype CD45RA− [10]: 70.13%
- Percentage of phenotype CD34+ (39° C. + PIC 35 nM, SFEM + HM): 41.95%
- Percentage of phenotype CD34+/CD45RA− (39° C. + PIC 35 nM, SFEM + HM): 12.39%
- Percentage of phenotype CD45RA− (39° C. + PIC 35 nM, SFEM + HM): 69.88%
- Percentage of phenotype CD34+ [11]: 37.9%
- Percentage of phenotype CD34+/CD45RA− [11]: 15.03%
- Percentage of phenotype CD45RA− [11]: 63.9%
- Percentage of phenotype CD34+ [12]: 37.56%
- Percentage of phenotype CD34+/CD45RA− [12]: 15.27%
- Percentage of phenotype CD45RA− [12]: 63.45%
